Assay results reported in the supplement of paper PMC10307832.

Assays:
Assay in all cases: relative viability (nuclei count vs DMSO), 5 days (fraction); higher = more cells survive
Tozasertib + Luminespib = compound: Cc1cc(Nc2cc(N3CCN(C)CC3)nc(Sc3ccc(NC(=O)C4CC4)cc3)n2)n[nH]1 [Tozasertib] + CCNC(=O)c1noc(-c2cc(C(C)C)c(O)cc2O)c1-c1ccc(CN2CCOCC2)cc1 [Luminespib] (partner 0.01 µM)
In short: (§1)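 A single step with final 0.05% Triton X-100, 1% formaldehyde and 1 ug/ml Hoechst fixed the cells and stained nuclei 5 days after treatment. Lung cancer cell lines in 1536-well plates had been treated by pin tool the day after seeding with one drug alone or a fixed anchor-drug dose plus five library-drug doses (not always all listed) in √10 steps, and nuclei were counted on 4× images. Relative viability is the ratio of nuclei in treated wells to nuclei in vehicle wells, taken as the median of duplicate plates.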

Tozasertib + Alpelisib = compound: Cc1cc(Nc2cc(N3CCN(C)CC3)nc(Sc3ccc(NC(=O)C4CC4)cc3)n2)n[nH]1 [Tozasertib] + Cc1nc(NC(=O)N2CCC[C@H]2C(N)=O)sc1-c1ccnc(C(C)(C)C(F)(F)F)c1 [Alpelisib] (partner 2 µM)
In short: as §1

Tozasertib + AZD7762 = compound: Cc1cc(Nc2cc(N3CCN(C)CC3)nc(Sc3ccc(NC(=O)C4CC4)cc3)n2)n[nH]1 [Tozasertib] + NC(=O)Nc1cc(-c2cccc(F)c2)sc1C(=O)N[C@H]1CCCNC1 [AZD7762] (partner 0.2 µM)
In short: as §1

Tozasertib + Pemetrexed = compound: Cc1cc(Nc2cc(N3CCN(C)CC3)nc(Sc3ccc(NC(=O)C4CC4)cc3)n2)n[nH]1 [Tozasertib] + Nc1nc2[nH]cc(CCc3ccc(C(=O)N[C@@H](CCC(=O)O)C(=O)O)cc3)c2c(=O)[nH]1 [Pemetrexed] (partner 0.2 µM)
In short: as §1

Tozasertib + Decitabine = compound: Cc1cc(Nc2cc(N3CCN(C)CC3)nc(Sc3ccc(NC(=O)C4CC4)cc3)n2)n[nH]1 [Tozasertib] + Nc1ncn([C@H]2C[C@H](O)[C@@H](CO)O2)c(=O)n1 [Decitabine] (partner 2 µM)
In short: as §1

Cell Line	relative viability (Tozasertib + Luminespib; first compound 0.01265 µM)	relative viability (Tozasertib + Luminespib; first compound 0.04 µM)	relative viability (Tozasertib + Luminespib; first compound 0.1265 µM)	relative viability (Tozasertib + Alpelisib; first compound 0.01265 µM)	relative viability (Tozasertib + Alpelisib; first compound 0.04 µM)	relative viability (Tozasertib + Alpelisib; first compound 0.1265 µM)	relative viability (Tozasertib + AZD7762; first compound 0.004 µM)	relative viability (Tozasertib + AZD7762; first compound 0.01265 µM)	relative viability (Tozasertib + AZD7762; first compound 0.04 µM)	relative viability (Tozasertib + AZD7762; first compound 0.1265 µM)	relative viability (Tozasertib + Pemetrexed; first compound 0.004 µM)	relative viability (Tozasertib + Pemetrexed; first compound 0.01265 µM)	relative viability (Tozasertib + Pemetrexed; first compound 0.04 µM)	relative viability (Tozasertib + Pemetrexed; first compound 0.1265 µM)	relative viability (Tozasertib + Decitabine; first compound 0.004 µM)	relative viability (Tozasertib + Decitabine; first compound 0.01265 µM)	relative viability (Tozasertib + Decitabine; first compound 0.04 µM)	relative viability (Tozasertib + Decitabine; first compound 0.1265 µM)	relative viability (Tozasertib + Luminespib; first compound 0.004 µM)	relative viability (Tozasertib + Alpelisib; first compound 0.004 µM)
LOU-NH91	0.354	0.33	0.336	0.736	0.731	0.694	0.733	0.719	0.838	0.64	0.421	0.409	0.372	0.39	0.681	0.791	0.812	0.762		
LU99A	0.249	0.27	0.218	0.507	0.463	0.267	0.314	0.328	0.306	0.169	0.165	0.155	0.207	0.193	0.968	0.859	0.785	0.504	0.225	0.648
LXF-289	0.51	0.664	0.399	1.05	0.955	0.615	1.12	1.02	1.04	0.619	0.972	0.824	0.842	0.859	0.378	0.405	0.337	0.262	0.573	
NCI-H23	0.221	0.183	0.198	0.578	0.781	0.361	0.199	0.259	0.216	0.186	0.888	0.659	0.695	0.319	0.332	0.298	0.276	0.242	0.198	0.638
NCI-H322M	0.996	0.851	0.564	0.749	0.904	0.848	0.497	0.507	0.572	0.48	0.575	0.585	0.629	0.478	0.656	0.661	0.675	0.618	0.805	0.732
NCI-H358	0.394	0.382	0.234	0.863	0.83	0.182	0.393		0.475	0.227	0.179	0.164	0.181	0.145	0.246	0.196	0.228	0.0965	0.265	1.08
NCI-H441	0.323	0.312	0.261	0.69	0.758	0.541	1.61	0.989	1.17	1.08	0.264	0.235	0.251	0.237	0.226	0.222	0.25	0.261	0.361	0.69
NCI-H460	0.0376	0.0324	0.0295	0.435	0.449	0.293	0.548	0.657	0.737		0.0596	0.0601	0.0605	0.0623	0.456	0.53	0.493	0.284	0.031	0.544
NCI-H596	0.96	1.09	0.901	0.451	0.519	0.439			1.2	0.871	0.549	0.477		0.473	0.984	0.948	0.853	0.888	0.957	
NCI-H647	0.152	0.186	0.194	0.915	1.06	0.371	0.567	0.418	0.43	0.0736	0.186	0.183	0.169	0.125	0.43	0.402	0.322	0.25	0.24	1.43
NCI-H650	0.845	0.678	0.646	1.06			0.935	1.07	0.797	1.05	1.01	0.897	0.878	0.82	0.38	0.288	0.334	0.284	0.901	1.23
NCI-H838	0.304	0.344	0.295	0.942	1.12	1.03	0.881	0.971	0.925		0.263	0.257	0.249	0.232	0.464	0.458	0.453	0.253	0.292	1.15
NCI-H1355	0.738	0.689	0.58	0.804	0.96	0.78	0.76	0.698	0.77	0.661	1.12	0.974	1.03	0.948	0.357	0.35	0.33	0.357	0.643	0.851
NCI-H1395	0.815	0.604	0.649	1.04	0.914	0.753	0.385	0.414	0.389	0.397	0.979	0.797	0.864	0.584	0.724	0.674	0.673	0.524	0.595	1.15
NCI-H1437	1.1	1.09	1.03	0.866	1.01	0.92	1.14	1.16	1.01	1.14	0.302	0.292	0.328	0.296	0.614	0.49	0.584	0.359	1.19	
NCI-H1651	0.918	1	0.909	1.01	0.886	1.03	0.469	0.464	0.498	0.422	0.593	0.615	0.582	0.433	0.608	0.623	0.611	0.437	0.818	0.922
